The record followed here is ChEMBL document CHEMBL1128797, “Annohexocin, a novel mono-THF acetogenin with six hydroxyls, from Annona muricata (Annonaceae)” (Bioorg Med Chem Lett, 1995).

Molecules are shown by their SMILES. In brackets after ≈: the same amount, converted by molar mass.

Data set [1] deals with MCF7. Kind of data set: Cytotoxic activity was tested against human MCF-7 (breast carcinoma) cell line. The data set is classed as functional. Conditions: read-out: ED50 (the source's name).
Data set [2] deals with A498. Briefly: Cytotoxic activity was tested against human A-498 (Kidney carcinoma) cell line. Format: functional. Particulars: read-out: ED50 (the source's name).
The nature of data set [3]: Compound was tested for brine shrimp lethality (BST). Format: organism-based. Conditions: artemia, in vivo.
Data set [4] relates to MIA PaCa-2. Kind of data set: Cytotoxic activity was tested against humanPAC-2 (pancreatic carcinoma) cell line. Format: functional. Particulars: Homo sapiens, read-out: ED50 (the source's name).
The subject of data set [5] is PC-3. Briefly: Cytotoxic activity was tested against human PC-3 (prostate adenocarcinoma) cell line. Conditions: read-out: ED50 (the source's name). The data set is classed as functional.
For data set [6], the system named is HT-29. Briefly: Cytotoxic activity was tested against human HT-29 (colon adenocarcinoma) cell line. Format: functional. Conditions: read-out: ED50 (the source's name).
Data set [7] deals with A549. Briefly: Cytotoxic activity was tested against human […] cell line A-549 (lung carcinoma). Format: functional. Particulars: read-out: ED50 (the source's name).
In data set [8] the test system is MIA PaCa-2. Kind of data set: Cytotoxic activity was tested against human PAC-2 (pancreatici carcinoma) cell line. Format: functional. Particulars: read-out: ED50 (the source's name).

Consider `CCCCCCCCCCCCC(O)C1CCC(C(O)CCC(O)CC(O)CC(O)CCCC(O)CC2=CC(C)OC2=O)O1` (stereo not drawn), for which the EC50 in data set [1] was found to be 2.26 µg/mL (≈ 3.59 µM); in data set [2], 2.36 µg/mL (≈ 3.75 µM); in data set [4], 0.77 µg/mL (≈ 1.22 µM); in data set [5], 0.0195 µg/mL (≈ 0.031 µM); in data set [6], 0.78 µg/mL (≈ 1.24 µM); in data set [7], 0.34 µg/mL (≈ 0.541 µM). Moreover, in data set [3], the LC50 is 34.4 µg/mL (≈ 54.7 µM).
For the compound `COc1cccc2c1C(=O)c1c(O)c3c(c(O)c1C2=O)C[C@@](O)(C(=O)CO)C[C@@H]3O[C@H]1C[C@H](N)[C@H](O)[C@H](C)O1` [DOXORUBICIN], the EC50 in data set [1] was 0.43 µg/mL (≈ 0.791 µM); in data set [2], 0.0335 µg/mL (≈ 0.0616 µM); in data set [8], 0.031 µg/mL (≈ 0.057 µM); in data set [5] it was 0.33 µg/mL (≈ 0.607 µM); in data set [6], 0.0896 µg/mL (≈ 0.165 µM); in data set [7], 0.0346 µg/mL (≈ 0.0637 µM).
